From patent publication US20080261821A1, “Mechanism-Based Crosslinkers” (THE REGENTS OF TE UNIVERSITY OF CALIFORNIA, priority 2004, published 2008)
The star is where a group is joined. Biotin = O=C1N[C@H]2[C@H](CS[C@H]2CCCCC(=O)*)N1; Ahx = NCCCCCC(=O)O

Columns and labels:
[1] = target: T1, His 6-tagged human Akt1 (Homo sapiens, UniProt P31749); assay: Crosslinking reactions with AKT1 (SDS-PAGE, streptavidin-HRP blot); format: biochemical; details: for crosslinking of peptide to AKT1 (formation of the peptide-AKT1 complex): peptide incubated with AKT1 in the presence of dialdehyde crosslinker 2, FIG. 2A
T1 construct: purchased Calbiochem
T1 sequence (P31749 whole entry): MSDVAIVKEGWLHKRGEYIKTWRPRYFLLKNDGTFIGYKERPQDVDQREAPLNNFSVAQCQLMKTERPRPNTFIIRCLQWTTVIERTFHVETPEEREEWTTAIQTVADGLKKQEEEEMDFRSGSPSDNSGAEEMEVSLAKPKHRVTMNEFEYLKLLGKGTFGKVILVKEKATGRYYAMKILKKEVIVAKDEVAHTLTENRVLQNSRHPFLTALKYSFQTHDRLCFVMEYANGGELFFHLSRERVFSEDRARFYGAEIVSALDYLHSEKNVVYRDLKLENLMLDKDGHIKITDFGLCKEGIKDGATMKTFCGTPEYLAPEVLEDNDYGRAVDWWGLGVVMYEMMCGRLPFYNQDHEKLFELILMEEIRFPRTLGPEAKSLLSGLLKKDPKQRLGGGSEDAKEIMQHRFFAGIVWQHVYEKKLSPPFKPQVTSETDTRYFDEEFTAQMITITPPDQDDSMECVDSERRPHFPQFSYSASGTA
Procedure: His 6-tagged human Akt1 (10 ng), 1 μM peptide 3 or 4, and 20 µM crosslinker 2 were incubated in 30 μL of 25 mM HEPES (pH=7.5), 150 mM NaCl, 2 mM MgCl2, 20 μM BME for 20 min at rt. After 20 min, 6 μL of 6× loading buffer was added to quench the reactions. The sample mixtures (10 μL) were resolved by 8-16% SDS-PAGE, transferred to nitrocellulose, and the membrane was probed with streptavidin-HRP.
To evaluate dialdehyde 2 as a mechanism-based crosslinker, a set of peptide substrate derivatives with and without an engineered cysteine (biotin-ZRPRTSSF-OH 3, fluorescein-ZZRPRTSSF-OH 4, biotin-ZRPRTSCF-OH 5 and fluorescein-ZZRPRTSCF—OH 6) were incubated with the kinase, AKT1 (Alessi et al., FEBS Lett. 399: 333-338 (1996)). […] As expected, the peptide-AKT1 covalent complex runs at a slightly higher molecular weight than unmodified AKT1 on SDS-PAGE.

[2] = target: T2, AKT kinase (Homo sapiens, UniProt P31749); assay: Kinase cell lysate crosslinking (avidin-agarose pull-down, anti-AKT blot); format: biochemical; details: 100 ng AKT kinase, 2 μg HeLa cell lysate; for anti-AKT signal after avidin-agarose pull-down of the biotinylated substrate: 1 μM substrate, 100 μM crosslinker 2, 90 minutes
T2 construct: host or cells: added to HeLa cell lysate
T2 sequence (P31749 whole entry): as above
Procedure: Kinase cell lysate crosslinking details: 1 μM of Akt substrate (Biotin-PEG-RPRTSCF-OH) and 100 ng of AKT kinase was added to 2 μg of HeLa cell lysate. 100 μM of the crosslinker 2 was added to cell lysate and the reaction was allowed to proceed for 90 minutes. The lysate were poured over avidin-agarose beads and the beads were washed with wash buffer. The bound protein was eluted from the agarose beads with loading buffer and then subjected to SDS-PAGE. The gel was transferred to nitrocellulose and probed with anti-AKT. […] As a control, the non-cysteine containing AKT substrate (Biotin-PEG-RPRTSSF-OH) was used in the crosslinking reaction described above. No signal was observed.

| Compound | anti-AKT signal after avidin-agarose pull-down of the biotinylated substrate [2] | crosslinking of peptide to AKT1 (formation of the peptide-AKT1 complex) [1] | further results |
| --- | --- | --- | --- |
| Nc1ncnc2c1ncn2C1OC(COC(=O)c2ccc(C=O)c(C=O)c2)C(O)C1O (stereo not shown) [dialdehyde 2] | – | – | crosslinking of AKT1 and peptide by the crosslinker (formation of the peptide-AKT1 complex) ([1]; dialdehyde 2 incubated with cysteine-containing peptide 5 and AKT1, FIG. 2A lane 2): rapid formation of the peptide-AKT1 complex was observed; anti-AKT signal after crosslinking in cell lysate by the crosslinker ([2]; 100 μM crosslinker 2 with 1 μM Biotin-PEG-RPRTSCF-OH, 90 minutes): positive signal |
| Biotin-PEG-RPRTSCF-OH | positive signal | – | – |
| Biotin-PEG-RPRTSSF-OH [reference compound] | No signal | – | – |
| Fluorescein-Ahx-Ahx-Arg-Pro-Arg-Thr-Ser-Cys-Phe-OH ({fluorescein-Ahx-Ahx}-RPRTSCF-OH) [peptide 6] | – | identical results | – |
| {Biotin-Ahx}-RPRTSCF-OH [peptide 5] | – | rapid formation of the peptide-AKT1 complex was observed | – |
| {Biotin-Ahx}-RPRTSSF-OH [peptide 3, reference compound] | – | no detectable crosslinking | – |
